≈ marks a conversion by molar mass, not a printed value.

Consider one compound from ChEMBL document CHEMBL5356934, “Antibacterial activities of anthraquinones: structure-activity relationships and action mechanisms” (RSC Med Chem, 2023).

The subject of this assay is Mycobacterium tuberculosis variant bovis. Put plainly: Antimycobacterial activity against Mycobacterium bovis assessed as reduction in bacterial growth. The class given is functional.

With `Cc1cc(O)c2c(c1)C(=O)c1cccc(O)c1C2=O` [CHRYSOPHANOL], the MIC came out at 64 µg/mL (≈ 252 µM).

As a reminder, the MIC is the least concentration at which growth counts as inhibited.
